Source: ChEMBL document CHEMBL3885861, “Open TG-GATES”

Species: Rattus norvegicus
Assay: Open TG-GATES - Regimen: Single
Format: toxicity, organism-based, Sprague-Dawley
Parameters: regimen Single, gender Male, age 6 weeks
Settings: in vivo, po, 0 mg/kg, route gavage, dose level Control; for APTT / Bas / Eos / Fbg / Hb / Ht / Lym / MCH / MCHC / MCV / Mono / Neu / PT / Plat / RBC / Ret / WBC: tissue Blood; for KIDNEY_L / KIDNEY_R / KIDNEY_TOTAL: tissue Kidney; for LIVER: tissue Liver; for A/G / ALP / ALT / AST / BUN / CRE / Ca / Cl / DBIL / GLC / IP / K / LDH / Na / PL / RALB / TBIL / TC / TG / TP / gamma-GTP: tissue Plasma

CC[C@@H](CO)NCCN[C@@H](CC)CO [ETHAMBUTOL]
TERMINAL_BW (3 h): 227 g | APTT (3 h): 21.4 s | Bas (3 h): 0% | Eos (3 h): 0.8% | Fbg (3 h): 319 mg/dL | Hb (3 h): 13.3 g/dL | Ht (3 h): 39.5% | Lym (3 h): 83.8% | MCH (3 h): 22.3 pg | MCHC (3 h): 33.7% | MCV (3 h): 66.2 fL | Mono (3 h): 2% | Neu (3 h): 12.2% | PT (3 h): 15.9 s | Plat (3 h): 118.8 x10_4/uL | RBC (3 h): 597.6 x10_4/ul | Ret (3 h): 8.3% | WBC (3 h): 97.7 x10_2/uL | KIDNEY_L (3 h): 1 g | KIDNEY_R (3 h): 1 g | KIDNEY_TOTAL (3 h): 2.1 g | LIVER (3 h): 11.4 g | A/G (3 h): 1.2 | ALP (3 h): 1599 IU/L | ALT (3 h): 42.2 IU/L | AST (3 h): 73.6 IU/L | BUN (3 h): 14.2 mg/dL | CRE (3 h): 0.2 mg/dL | Ca (3 h): 10.4 mg/dL | Cl (3 h): 106.6 meq/L | DBIL (3 h): 0 mg/dL | GLC (3 h): 192.4 mg/dL | IP (3 h): 8.7 mg/dL | K (3 h): 4.1 meq/L | LDH (3 h): 171.6 IU/L | Na (3 h): 144.2 meq/L | PL (3 h): 137.2 mg/dL | RALB (3 h): 3 g/dL | TBIL (3 h): 0.01 mg/dL | TC (3 h): 75.6 mg/dL | TG (3 h): 63.8 mg/dL | TP (3 h): 5.3 g/dL | gamma-GTP (3 h): 1.6 IU/L | TERMINAL_BW (6 h): 224 g | APTT (6 h): 22.2 s | Bas (6 h): 0% | Eos (6 h): 0.8% | Fbg (6 h): 301.2 mg/dL | Hb (6 h): 13.6 g/dL | Ht (6 h): 39.9% | Lym (6 h): 82.6% | MCH (6 h): 21.7 pg | MCHC (6 h): 34.1% | MCV (6 h): 63.8 fL | Mono (6 h): 2.4% | Neu (6 h): 13% | PT (6 h): 15.6 s | Plat (6 h): 122.5 x10_4/uL | RBC (6 h): 624.8 x10_4/ul | Ret (6 h): 7.5% | WBC (6 h): 117.8 x10_2/uL | KIDNEY_L (6 h): 1 g | KIDNEY_R (6 h): 1 g | KIDNEY_TOTAL (6 h): 2 g | LIVER (6 h): 10 g | A/G (6 h): 1.2 | ALP (6 h): 1271 IU/L | ALT (6 h): 35 IU/L | AST (6 h): 66.2 IU/L | BUN (6 h): 11.2 mg/dL | CRE (6 h): 0.2 mg/dL | Ca (6 h): 10.3 mg/dL | Cl (6 h): 105.8 meq/L | DBIL (6 h): 0 mg/dL | GLC (6 h): 200.4 mg/dL | IP (6 h): 9.2 mg/dL | K (6 h): 4.4 meq/L | LDH (6 h): 176.2 IU/L | Na (6 h): 141.8 meq/L | PL (6 h): 134.8 mg/dL | RALB (6 h): 2.9 g/dL | TBIL (6 h): 0.02 mg/dL | TC (6 h): 72 mg/dL | TG (6 h): 82.8 mg/dL | TP (6 h): 5.4 g/dL | gamma-GTP (6 h): 1.6 IU/L | TERMINAL_BW (9 h): 220 g | APTT (9 h): 22.6 s | Bas (9 h): 0% | Eos (9 h): 0.6% | Fbg (9 h): 288 mg/dL | Hb (9 h): 13.4 g/dL | Ht (9 h): 39.5% | Lym (9 h): 82.6% | MCH (9 h): 21.3 pg | MCHC (9 h): 34% | MCV (9 h): 62.7 fL | Mono (9 h): 2.4% | Neu (9 h): 13.2% | PT (9 h): 16.5 s | Plat (9 h): 116 x10_4/uL | RBC (9 h): 632 x10_4/ul | Ret (9 h): 6.9% | WBC (9 h): 93.6 x10_2/uL | KIDNEY_L (9 h): 1 g | KIDNEY_R (9 h): 1 g | KIDNEY_TOTAL (9 h): 2 g | LIVER (9 h): 9.3 g | A/G (9 h): 1.2 | ALP (9 h): 1394.2 IU/L | ALT (9 h): 37.4 IU/L | AST (9 h): 69.8 IU/L | BUN (9 h): 10.6 mg/dL | CRE (9 h): 0.2 mg/dL | Ca (9 h): 10.1 mg/dL | Cl (9 h): 107.8 meq/L | DBIL (9 h): 0.002 mg/dL | GLC (9 h): 180.2 mg/dL | IP (9 h): 9 mg/dL | K (9 h): 4.1 meq/L | LDH (9 h): 136.8 IU/L | Na (9 h): 142 meq/L | PL (9 h): 118.2 mg/dL | RALB (9 h): 3 g/dL | TBIL (9 h): 0.024 mg/dL | TC (9 h): 68.4 mg/dL | TG (9 h): 37.4 mg/dL | TP (9 h): 5.6 g/dL | gamma-GTP (9 h): 1.2 IU/L | TERMINAL_BW (24 h): 232.7 g | APTT (24 h): 22.2 s | Bas (24 h): 0% | Eos (24 h): 0.8% | Fbg (24 h): 311.8 mg/dL | Hb (24 h): 13.9 g/dL | Ht (24 h): 39.5% | Lym (24 h): 82.4% | MCH (24 h): 22.5 pg | MCHC (24 h): 35.1% | MCV (24 h): 64 fL | Mono (24 h): 2.4% | Neu (24 h): 13.4% | PT (24 h): 16.4 s | Plat (24 h): 115.4 x10_4/uL | RBC (24 h): 618.2 x10_4/ul | Ret (24 h): 6.9% | WBC (24 h): 99.5 x10_2/uL | KIDNEY_L (24 h): 1 g | KIDNEY_R (24 h): 1 g | KIDNEY_TOTAL (24 h): 2 g | LIVER (24 h): 10.8 g | A/G (24 h): 1.1 | ALP (24 h): 1625.6 IU/L | ALT (24 h): 47.6 IU/L | AST (24 h): 73 IU/L | BUN (24 h): 17.2 mg/dL | CRE (24 h): 0.2 mg/dL | Ca (24 h): 10.6 mg/dL | Cl (24 h): 106.8 meq/L | DBIL (24 h): 0 mg/dL | GLC (24 h): 199 mg/dL | IP (24 h): 8.1 mg/dL | K (24 h): 4.1 meq/L | LDH (24 h): 176.8 IU/L | Na (24 h): 142.4 meq/L | PL (24 h): 147.2 mg/dL | RALB (24 h): 3 g/dL | TBIL (24 h): 0.006 mg/dL | TC (24 h): 73.4 mg/dL | TG (24 h): 94.6 mg/dL | TP (24 h): 5.7 g/dL | gamma-GTP (24 h): 1.8 IU/L
